Reference: patent US10670605B2, “Cysteine reactive probes and uses thereof” (The Scripps Research Institute, priority 2015, dated 2020)
Values belong to the molecule of their own block, whether it stands above or below them.

What was measured:
Test in all cases: Competitive isoTOP-ABPP, cell lysates;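 on isoTOP-ABPP reactivity profile ratio, P68036 C86: Heavy/light ratio DMSO over fragment-treated so higher means more cysteine engagement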
Format in all cases: binding
PDE12 C108 (Q6L8Q7) = target: T1, PDE12 C108 (Q6L8Q7) (Homo sapiens, UniProt Q6L8Q7)
T1 sequence (Q6L8Q7 43-609): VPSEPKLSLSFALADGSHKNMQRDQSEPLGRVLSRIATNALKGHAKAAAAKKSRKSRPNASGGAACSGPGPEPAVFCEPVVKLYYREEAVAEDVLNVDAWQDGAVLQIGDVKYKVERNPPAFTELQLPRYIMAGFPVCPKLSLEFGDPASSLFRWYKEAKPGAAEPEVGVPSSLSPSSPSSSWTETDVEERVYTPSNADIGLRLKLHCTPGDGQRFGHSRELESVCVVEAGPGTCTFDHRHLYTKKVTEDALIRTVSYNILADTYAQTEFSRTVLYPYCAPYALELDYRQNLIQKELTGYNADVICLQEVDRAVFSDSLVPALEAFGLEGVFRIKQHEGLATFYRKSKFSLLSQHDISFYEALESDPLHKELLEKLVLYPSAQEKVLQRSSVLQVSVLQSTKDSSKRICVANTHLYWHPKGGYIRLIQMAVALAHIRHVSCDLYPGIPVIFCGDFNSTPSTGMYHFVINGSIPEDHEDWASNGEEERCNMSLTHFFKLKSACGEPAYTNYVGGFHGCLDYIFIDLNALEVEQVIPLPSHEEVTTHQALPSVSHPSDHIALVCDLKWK

IRF4 C194 (Q15306) = target: T2, IRF4 C194 (Q15306) (Homo sapiens, UniProt Q15306); settings: for isoTOP-ABPP ratio (reactivity profile), Q15306_C194: 500 μm in-vitro ramos; for isoTOP-ABPP reactivity ratio, Q15306_C194 / isoTOP-ABPP reactivity profile ratio, Q15306_C194: 500 μm, in-vitro_ramos
T2 sequence (Q15306 1-451): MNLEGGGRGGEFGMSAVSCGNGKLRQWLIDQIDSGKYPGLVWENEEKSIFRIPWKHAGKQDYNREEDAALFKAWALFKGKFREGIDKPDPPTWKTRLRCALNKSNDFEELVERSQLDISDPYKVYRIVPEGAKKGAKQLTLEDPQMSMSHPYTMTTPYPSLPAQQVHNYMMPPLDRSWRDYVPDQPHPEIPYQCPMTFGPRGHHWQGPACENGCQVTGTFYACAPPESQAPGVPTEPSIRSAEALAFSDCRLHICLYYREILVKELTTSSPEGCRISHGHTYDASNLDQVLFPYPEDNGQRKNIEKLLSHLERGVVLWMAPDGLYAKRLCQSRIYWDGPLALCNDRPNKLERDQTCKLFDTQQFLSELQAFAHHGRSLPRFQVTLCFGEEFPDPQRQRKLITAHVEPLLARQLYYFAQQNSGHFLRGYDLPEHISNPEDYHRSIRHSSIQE

MGMT C150 (P16455) = target: T3, MGMT C150 (P16455) (Homo sapiens, UniProt P16455); settings: for isoTOP-ABPP ratio (reactivity profile), P16455_C150: 500 μm in-vitro ramos; for isoTOP-ABPP reactivity ratio, P16455_C150 / isoTOP-ABPP reactivity profile ratio, P16455_C150: 500 μm, in-vitro_ramos
T3 sequence (P16455 1-207): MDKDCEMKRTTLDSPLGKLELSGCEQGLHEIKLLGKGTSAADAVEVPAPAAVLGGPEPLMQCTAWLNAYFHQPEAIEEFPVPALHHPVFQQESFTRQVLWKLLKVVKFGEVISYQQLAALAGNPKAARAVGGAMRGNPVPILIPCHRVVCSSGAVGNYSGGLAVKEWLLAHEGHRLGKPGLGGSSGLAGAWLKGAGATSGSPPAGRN

IDH2 C308 (P48735) = target: T4, IDH2 C308 (P48735) (Homo sapiens, UniProt P48735); settings: for isoTOP-ABPP ratio (reactivity profile), P48735_C308: 500 μm in-vitro ramos_231; for isoTOP-ABPP reactivity profile ratio, P48735_C308: 500 μm, in-vitro_ramos_231
T4 sequence (P48735 40-452): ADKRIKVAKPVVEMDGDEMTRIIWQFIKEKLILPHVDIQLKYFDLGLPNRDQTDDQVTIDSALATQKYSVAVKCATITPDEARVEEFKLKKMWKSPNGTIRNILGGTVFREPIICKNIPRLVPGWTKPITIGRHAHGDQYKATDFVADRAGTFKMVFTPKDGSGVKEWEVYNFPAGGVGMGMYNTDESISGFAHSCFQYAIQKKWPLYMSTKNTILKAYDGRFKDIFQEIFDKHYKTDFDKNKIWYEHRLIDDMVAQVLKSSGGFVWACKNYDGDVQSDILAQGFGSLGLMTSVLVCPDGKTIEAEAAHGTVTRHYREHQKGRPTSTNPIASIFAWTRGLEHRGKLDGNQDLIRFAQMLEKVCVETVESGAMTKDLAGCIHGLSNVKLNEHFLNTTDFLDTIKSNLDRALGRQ

UBE2L3 C86 (P68036) = UBE2L3 C86 (P68036) (Homo sapiens, UniProt P68036); settings: for isoTOP-ABPP reactivity ratio, P68036_C86 / isoTOP-ABPP reactivity profile ratio, P68036_C86: 500 μm;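 on isoTOP-ABPP reactivity profile ratio, P68036 C86: Heavy/light ratio DMSO over fragment-treated so higher means more cysteine engagement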

isoTOP-ABPP reactivity profile ratio, Q15306_C194 (IRF4 C194 (Q15306)): 1.2
isoTOP-ABPP reactivity profile ratio, P68036_C86 (UBE2L3 C86 (P68036); in-vitro_ramos): 0.8
isoTOP-ABPP reactivity profile ratio, P16455_C150 (MGMT C150 (P16455)): 0.8
Compound: N#CC(=Cc1ccc(-c2ccccc2Cl)o1)C(N)=O [compound 42]

isoTOP-ABPP reactivity profile ratio, P48735_C308 (IDH2 C308 (P48735)): 0.8
isoTOP-ABPP reactivity profile ratio, Q15306_C194 (IRF4 C194 (Q15306)): 3.0
isoTOP-ABPP reactivity profile ratio, P68036_C86 (UBE2L3 C86 (P68036); in-vitro_ramos): 1.7
isoTOP-ABPP reactivity profile ratio, P68036_C86 (UBE2L3 C86 (P68036); in-vitro_ramos_231): 1.1
isoTOP-ABPP reactivity profile ratio, P16455_C150 (MGMT C150 (P16455)): 20.0
Compound: COc1cc(NC(=O)CCl)cc(OC)c1 [compound 43]

isoTOP-ABPP reactivity profile ratio, P48735_C308 (IDH2 C308 (P48735)): 1.0
Compound: CC1CCc2ccccc2N1C(=O)CCl (stereo not shown) [compound 45]

isoTOP-ABPP reactivity profile ratio, P48735_C308 (IDH2 C308 (P48735)): 0.2
isoTOP-ABPP reactivity profile ratio, P68036_C86 (UBE2L3 C86 (P68036); in-vitro_ramos_231): 1.2
Compound: C=CC(=O)N(c1ccccc1)C1CCCCC1 [compound 46]

isoTOP-ABPP reactivity profile ratio, P48735_C308 (IDH2 C308 (P48735)): 2.2
isoTOP-ABPP reactivity profile ratio, Q6L8Q7_C108 (PDE12 C108 (Q6L8Q7); 500 μm, in-vitro_ramos_231): 1.8
Compound: O=C(CCl)N1CCc2cc(Br)ccc21 [compound 50]

isoTOP-ABPP reactivity profile ratio, Q15306_C194 (IRF4 C194 (Q15306)): 1.4
isoTOP-ABPP reactivity profile ratio, P68036_C86 (UBE2L3 C86 (P68036); in-vitro_ramos): 1.0
Compound: O=C(CCl)Nc1cccc2ncccc12 [compound 51]

The remaining lines, values behind:

Compound: CC(Br)C(=O)Nc1cc(C(F)(F)F)cc(C(F)(F)F)c1 (stereo not shown) [compound 24]
isoTOP-ABPP ratio (reactivity profile), Q6L8Q7_C108 (PDE12 C108 (Q6L8Q7); 500 μm in-vitro ramos): 1.4
isoTOP-ABPP ratio (reactivity profile), Q15306_C194 (IRF4 C194 (Q15306)): 1.9
isoTOP-ABPP ratio (reactivity profile), P16455_C150 (MGMT C150 (P16455)): 4.0

Compound: CC(Cl)C(=O)Nc1cc(C(F)(F)F)cc(C(F)(F)F)c1 (stereo not shown) [compound 25]
isoTOP-ABPP ratio (reactivity profile), P48735_C308 (IDH2 C308 (P48735)): 14.5
isoTOP-ABPP ratio (reactivity profile), Q6L8Q7_C108 (PDE12 C108 (Q6L8Q7); 500 μm in-vitro ramos_231): 0.8
isoTOP-ABPP ratio (reactivity profile), P68036_C86 (UBE2L3 C86 (P68036); 500 μm in-vitro ramos_231): 1.5

Compound: O=C(/C=C/c1ccccc1)Nc1cc(C(F)(F)F)cc(C(F)(F)F)c1 [compound 26]
isoTOP-ABPP ratio (reactivity profile), Q6L8Q7_C108 (PDE12 C108 (Q6L8Q7); 500 μm in-vitro ramos): 1.1
isoTOP-ABPP ratio (reactivity profile), Q15306_C194 (IRF4 C194 (Q15306)): 1.1
isoTOP-ABPP ratio (reactivity profile), P68036_C86 (UBE2L3 C86 (P68036); 500 μm in-vitro ramos): 0.7
isoTOP-ABPP ratio (reactivity profile), P16455_C150 (MGMT C150 (P16455)): 0.9

Compound: O=C(CCl)N1CCN(CC(=O)N2CCOCC2)CC1 [compound 29]
isoTOP-ABPP ratio (reactivity profile), P48735_C308 (IDH2 C308 (P48735)): 1.0
isoTOP-ABPP ratio (reactivity profile), Q15306_C194 (IRF4 C194 (Q15306)): 1.2
isoTOP-ABPP ratio (reactivity profile), P68036_C86 (UBE2L3 C86 (P68036); 500 μm in-vitro ramos): 1.5
isoTOP-ABPP ratio (reactivity profile), P68036_C86 (UBE2L3 C86 (P68036); 500 μm in-vitro ramos_231): 0.9
isoTOP-ABPP ratio (reactivity profile), P16455_C150 (MGMT C150 (P16455)): 1.3

Compound: CC(C)(C)c1cc(NC(=O)CCl)on1 [compound 32]
isoTOP-ABPP reactivity ratio, Q6L8Q7_C108 (PDE12 C108 (Q6L8Q7); 500 μm, in-vitro_ramos): 1.9
isoTOP-ABPP reactivity ratio, Q6L8Q7_C108 (PDE12 C108 (Q6L8Q7); 500 μm, in-vitro_ramos_231): 2.5
isoTOP-ABPP reactivity ratio, Q15306_C194 (IRF4 C194 (Q15306)): 3.7
isoTOP-ABPP reactivity ratio, P68036_C86 (UBE2L3 C86 (P68036); in-vitro_ramos): 0.9
isoTOP-ABPP reactivity ratio, P68036_C86 (UBE2L3 C86 (P68036); in-vitro_ramos_231): 1.1
isoTOP-ABPP reactivity ratio, P16455_C150 (MGMT C150 (P16455)): 20.0

Compound: O=C(CCl)N(Cc1ccc(F)cc1)C12CC3CC(CC(C3)C1)C2 [compound 34]
isoTOP-ABPP reactivity ratio, P16455_C150 (MGMT C150 (P16455)): 1.4

Compound: O=C(CCl)Nc1ccccc1C1CCCCCC1 [compound 35]
isoTOP-ABPP reactivity ratio, Q6L8Q7_C108 (PDE12 C108 (Q6L8Q7); 500 μm, in-vitro_ramos_231): 0.8
isoTOP-ABPP reactivity ratio, Q15306_C194 (IRF4 C194 (Q15306)): 1.0
isoTOP-ABPP reactivity ratio, P16455_C150 (MGMT C150 (P16455)): 1.3

Compound: C=CC(=O)N1CCC(c2noc3ccc(F)cc23)CC1 [compound 37]
isoTOP-ABPP reactivity ratio, Q15306_C194 (IRF4 C194 (Q15306)): 0.9
isoTOP-ABPP reactivity ratio, P16455_C150 (MGMT C150 (P16455)): 1.0

Compound: C=CC(=O)Nc1cc(C)c(Br)cc1C [compound 40]
isoTOP-ABPP reactivity ratio, Q6L8Q7_C108 (PDE12 C108 (Q6L8Q7); 500 μm, in-vitro_ramos_231): 0.8
isoTOP-ABPP reactivity ratio, Q15306_C194 (IRF4 C194 (Q15306)): 1.1
isoTOP-ABPP reactivity ratio, P68036_C86 (UBE2L3 C86 (P68036); in-vitro_ramos): 0.9
isoTOP-ABPP reactivity ratio, P68036_C86 (UBE2L3 C86 (P68036); in-vitro_ramos_231): 0.8
isoTOP-ABPP reactivity ratio, P16455_C150 (MGMT C150 (P16455)): 1.9

Compound: Cc1ccc(C=C(C#N)C(=O)NCCN2CCOCC2)cc1 [compound 41]
isoTOP-ABPP reactivity ratio, Q6L8Q7_C108 (PDE12 C108 (Q6L8Q7); 500 μm, in-vitro_ramos_231): 1.3
isoTOP-ABPP reactivity ratio, Q15306_C194 (IRF4 C194 (Q15306)): 1.2
isoTOP-ABPP reactivity ratio, P68036_C86 (UBE2L3 C86 (P68036); in-vitro_ramos): 7.9
isoTOP-ABPP reactivity ratio, P68036_C86 (UBE2L3 C86 (P68036); in-vitro_ramos_231): 9.8
isoTOP-ABPP reactivity ratio, P16455_C150 (MGMT C150 (P16455)): 0.9
